The text below walks through data of patent US8012975B2, “Antitumoral analogs of ET-743” (Pharma Mar, S.A., priority 2000, dated 2011).

For one test, the system named is SK-HEP-1. Description: Cytotoxic activity (M) panel, Liver SK-HEP-1. Particulars: Homo sapiens, SK-HEP1, read-out: CYTOTOXIC ACTIVITY (M) SK-HEP-1.
For another test, the system named is SW-694. Description: Cytotoxic activity (M) panel, Fibrosarcoma SW-694. Particulars: read-out: CYTOTOXIC ACTIVITY (M) SW-694.
In the next test the test system is 5637. Nature of the test: Cytotoxic activity (M) panel, Bladder 5637. Particulars: read-out: CYTOTOXIC ACTIVITY (M) 5637.
The next test relates to Hs746t. Description: Cytotoxic activity (M) panel, Gastric Hs746t. Particulars: Homo sapiens, read-out: CYTOTOXIC ACTIVITY (M) Hs746t.
The test system of a further test is HT-29. Description: Cytotoxic activity (M) panel, Colon HT-29. Particulars: Homo sapiens, HT-29, read-out: CYTOTOXIC ACTIVITY (M) HT-29.
For a further test, the system named is SK-OV-3. Description: Cytotoxic activity (M) panel, Ovary SK-OV-3. Particulars: Homo sapiens, SK-OV-3, read-out: CYTOTOXIC ACTIVITY (M) SK-OV-3.
For a further test, the system named is 786-O. Nature of the test: Cytotoxic activity (M) panel, Renal 786-O. Particulars: Homo sapiens, 786-0, read-out: CYTOTOXIC ACTIVITY (M) 786-O.
For the next test, the system named is A549. Description: Cytotoxic activity (M) panel, NSCL A549. Particulars: Homo sapiens, A549, read-out: CYTOTOXIC ACTIVITY (M) A549.
A further test deals with PANC-1. Nature of the test: Cytotoxic activity (M) panel, Pancreas PANC-1. Particulars: Homo sapiens, PANC-1, read-out: CYTOTOXIC ACTIVITY (M) PANC-1.
The subject of a further test is DU-145. Nature of the test: Cytotoxic activity (M) panel, Prostate DU-145. Particulars: Homo sapiens, DU-145, read-out: CYTOTOXIC ACTIVITY (M) DU-145.
For the next test, the system named is PC3. Nature of the test: Cytotoxic activity (M) panel, Prostate PC3. Particulars: Homo sapiens, PC-3, read-out: CYTOTOXIC ACTIVITY (M) PC3.
For another test, the system named is LNCAP. Description: Cytotoxic activity (M) panel, Prostate LNCAP. Particulars: Homo sapiens, read-out: CYTOTOXIC ACTIVITY (M) LNCAP.
Another test concerns MEL-28. Nature of the test: Cytotoxic activity (M) panel, Melanoma Mel-28. Particulars: Homo sapiens, SK-MEL-28, read-out: CYTOTOXIC ACTIVITY (M) Mel-28.
The next test relates to FADU. Nature of the test: Cytotoxic activity (M) panel, Pharnynx FADU. Particulars: Homo sapiens, read-out: CYTOTOXIC ACTIVITY (M) FADU.
Another test has as its system CHSA. Nature of the test: Cytotoxic activity (M) panel, Chondrosarcoma CHSA. Particulars: read-out: CYTOTOXIC ACTIVITY (M) CHSA.
The subject of a further test is MX-1. Nature of the test: Cytotoxic activity (M) panel, Breast MX-1. Particulars: Homo sapiens, MX1, read-out: CYTOTOXIC ACTIVITY (M) MX-1.
A further test concerns Y-79. Nature of the test: Cytotoxic activity (M) panel, Retinoblastoma Y-79. Particulars: Homo sapiens, Y79, read-out: CYTOTOXIC ACTIVITY (M) Y-79.
A further test concerns NCI-H187. Description: Cytotoxic activity (M) panel, SCL NCI-H187. Particulars: Homo sapiens, NCI-H187, read-out: CYTOTOXIC ACTIVITY (M) NCI-H187.
For the next test, the system named is OSA-FH. Nature of the test: Cytotoxic activity (M) panel, Osteosarcoma OSA-FH. Particulars: read-out: CYTOTOXIC ACTIVITY (M) OSA-FH.

Structures are written as SMILES.

Take `COc1c(C)cc2c(c1O)[C@@H]1C3Cc4c(OC(C)=O)c(C)c5c(c4[C@H](CNC(=O)/C=C/c4cccc(C(F)(F)F)c4)N3[C@@H](O)[C@H](C2)N1C)OCO5` (some centres unmarked) [drawing 211]: the IC50 in the test with SK-HEP-1 is 1.79e-12 M; with SW-694 it was 9.91e-10 M; in the test with 5637, 6.02e-10 M; in the test with Hs746t, 7.9e-12 M; in the test with HT-29, 7.84e-10 M; in the test with SK-OV-3 it was 4.39e-11 M. Further, the IC50 with 786-O came out at 6.58e-12 M; in the test on A549, 3.25e-09 M; in the test with PANC-1 it was 7.22e-11 M; in the test with DU-145 it was 5.73e-10 M; in the test with PC3 it was 6.65e-09 M; with LNCAP, 5.45e-10 M. Besides, the IC50 in the test on MEL-28 came to 2.6e-10 M; in the test with FADU it was 5.41e-11 M; in the test with CHSA, 3.24e-10 M; in the test on MX-1 it was 1.65e-06 M.

For the compound `COc1c(C)cc2c(c1O)[C@@H]1C3Cc4c(OC(C)=O)c(C)c5c(c4[C@H](CNC(=O)[C@H](C)NC(=O)C(F)(F)F)N3[C@@H](O)[C@H](C2)N1C)OCO5` (some centres unmarked) [drawing 212], the IC50 is 7.36e-10 M in the test on Y-79; 9.57e-10 M in the test on NCI-H187; 6.01e-11 M in the test with SK-HEP-1; 3.42e-10 M with 5637; 2.18e-09 M with Hs746t; 1.97e-08 M with HT-29. In addition, the IC50 worked out at 1.02e-07 M in the test on SK-OV-3; 1.59e-09 M in the test with 786-O; 7.68e-06 M in the test with A549; 4.17e-09 M with PANC-1; 1.83e-07 M in the test on DU-145; 2.15e-09 M in the test with PC3. The IC50 in the test on LNCAP came out at 2.17e-10 M; in the test on MEL-28 it was 3.17e-09 M; in the test with FADU, 1.58e-09 M; in the test with OSA-FH, 1.39e-09 M; in the test on CHSA, 6.77e-09 M.

`CCCCCC(=O)NC[C@H]1c2c(c(OC(C)=O)c(C)c3c2OCO3)CC2[C@H]3c4c(cc(C)c(OC)c4O)C[C@@H]([C@H](O)N21)N3C` (some centres unmarked) [drawing 226]: the IC50 was found to be 1.08e-09 M in the test on SK-HEP-1; 2.84e-10 M in the test with 5637; 9.19e-09 M in the test with Hs746t; 8.97e-09 M in the test with HT-29; 1.72e-09 M in the test with 786-O; 9.41e-09 M with A549. In addition, the IC50 in the test on PANC-1 stood at 1e-09 M; with PC3, 9.32e-10 M; in the test on MEL-28, 1.15e-09 M; in the test with FADU it was 1.39e-08 M; with OSA-FH, 1.3e-09 M; with CHSA, 2.1e-09 M.

In the case of `COc1c(C)cc2c(c1O)[C@@H]1C3Cc4c(OC(C)=O)c(C)c5c(c4[C@H](COC(=O)CCc4ccccc4)N3[C@@H](O)[C@H](C2)N1C)OCO5` (some centres unmarked) [drawing 235], the IC50 in the test on Y-79 was determined as 1.03e-08 M; in the test with SK-HEP-1, 1.29e-09 M; in the test on SW-694 it was 8.53e-06 M; in the test on 5637, 7.88e-10 M; with Hs746t, 2.95e-08 M; in the test with HT-29, 8.99e-09 M. Besides, the IC50 in the test with 786-O was 9.23e-10 M; with A549, 8.22e-06 M; with PANC-1, 5.68e-10 M; in the test on PC3, 7.71e-10 M; in the test with MEL-28, 2.23e-08 M; with FADU, 5.4e-11 M. In addition, the IC50 with OSA-FH amounted to 1.29e-09 M; with CHSA, 1.55e-05 M.

With `CCCC(=O)OC[C@H]1c2c(c(OC(C)=O)c(C)c3c2OCO3)CC2[C@H]3c4c(cc(C)c(OC)c4O)C[C@@H]([C@H](O)N21)N3C` (some centres unmarked) [drawing 236], the IC50 in the test on Y-79 was determined as 2.64e-09 M; with NCI-H187 it was 2.33e-10 M; in the test on SK-HEP-1, 6.12e-08 M; in the test with 5637, 3.02e-08 M; with Hs746t it was 7.05e-07 M; with HT-29 it was 1.34e-08 M. For the same compound, the IC50 in the test on SK-OV-3 was determined as 3.55e-08 M; in the test on 786-O, 1.13e-08 M; with A549, 8.49e-09 M; in the test on PANC-1, 1.28e-08 M; with DU-145, 1.17e-08 M; with PC3, 6.18e-10 M. The IC50 with LNCAP amounted to 3.29e-07 M; in the test with MEL-28 it was 1.25e-08 M; in the test on FADU it was 2.47e-08 M; with OSA-FH, 5.01e-08 M; in the test on CHSA, 2.95e-08 M; in the test on MX-1, 4.75e-08 M.
